# Experimental data: paper PMC8305768, “Design, Synthesis and Antiparasitic Evaluation of Click Phospholipids” (Molecules, 2021)
# Structures can show the parent of a compound that is named as a salt. Where two headings read alike, the source gives them in different places.
# What was measured:
# [1] = system: T. cruzi epimastigotes (Y strain); assay: Antiproliferative assay on T. cruzi epimastigotes; format: cell-based; settings: Trypanosoma cruzi
# Protocol: T. cruzi epimastigotes (Y strain) were obtained by axenic cultivation in the LIT medium, supplemented with 10% FBS (Cultilab, São Paulo, Brazil). Cultures were maintained at […] for 4–5 days until they reached the log growth phase. New cultures were made every 4 days from the initial inoculum of 2 × 10^6 parasites/mL. T. cruzi trypomastigotes (Y strain) were maintained in culture by the infection of LLC-MK2 (ATTC-CCL7) epithelial cells. This cell line was cultured in […] tissue culture bottles (TPP) in RPMI 1640 medium (Gibco), (Thermo Fischer Scientific, Carlsbad, CA, USA) supplemented with 10% FBS (Gibco) (Thermo Fischer Scientific, Carlsbad, CA, USA). Cultures were maintained at 37 °C under 5% CO2 atmosphere, and RPMI 1640 medium and SFB were exchanged every 48 h. After confluence, the cultures were treated with 1 mL of a mixture of trypsin and versene (Sigma, São Paulo, Brazil) (0.2 and 0.002%, respectively). After 24 h, a subconfluence culture was infected with the trypomastigotes in the approximate proportion of 10:1 parasites/cell. From five to seven days post infection, the trypomastigote stage was obtained from the culture supernatant. Alternatively (Figure 2), T. cruzi strain Y was maintained as previously described.
# The trypomastigotes were obtained from the supernatant of a previously infected cell line (LLC-MK2). Between 5 and 7 days after infection, protozoa were collected from the supernatants of the infected LLC-MK2 cells and were then incubated with fresh RPMI 1640 medium supplemented with 0.5% FBS, with or without the compounds, for 24 h at 37 °C under a 5% CO2 atmosphere. […] The experiment was performed in duplicate for each of the three different experiments. For the antiproliferative assay involving epimastigotes, […] were cultivated in LIT medium supplemented with 10% FBS. After 24 h of epimastigote growth, different concentrations of 50 nM to 50 µM were added to the culture and incubated for 120 h at 28 °C. Cells were collected every 24 h for counting in a Neubauer chamber. Two controls were used and consisted of liver infusion broth-tryptose (LIT) supplemented with 10% FBS and LIT added with 0.01% DMSO. To investigate the effect of the compounds on intracellular amastigotes, peritoneal macrophages from Swiss mouse (CF1) plated in 96 wells plates (Costar®, Sigma, São Paulo, Brazil) were incubated for 2 h with T. cruzi trypomastigotes at a ratio of 10 parasites to 1 cell. The non-internalized parasites were removed by washing with the RPMI 1640 medium, and the host cells were incubated for 24 h at 37 °C to allow full internalization and differentiation of trypomastigotes to amastigotes. Fresh 10% FBS-RPMI 1640 medium with 1 µg/mL Hoescht 3348 and 1 µg/mL of WGA-FITC (control) or the same solution containing the inhibitors was added to the infected cells, which were then incubated for 96 h at 37 °C. Every 24 h samples were taken and analysed in high content equipment (InCell Analyser 2000, GE Healthcare, Chicago, IL, USA) with 20× air objective (NA 0.4) using respectively filters to excitation and emission to DAPI (405/455 nm), FITC (488/505 nm) and Cy3 (514/605 nm). Six images were collected for each well for reliable statistical analysis. […] The infection index (i.e., the percentage of infected host cells multiplied by the average number of intracellular amastigotes per infected host cell) was determined by counting a total of 500 host cells. Inhibitor activity was calculated using the SigmaPlot (version 10) program (Systat Software, Inc., San Jose, CA, USA). The results are expressed as the mean values from three independent experiments. The IC50 was calculated for promastigotes and intracellular amastigotes by fitting the values to a non-linear curve analysis. The regression analyses were performed with SigmaPlot 10 (version 10) program (Systat Software, Inc., San Jose, CA, USA).
# [2] = system: PMA-differentiated THP-1 cells; assay: Cytotoxicity against THP-1 macrophages (MTT); format: cell-based; settings: PMA-differentiated THP-1 macrophages, 72 h, read-out: Toxicity CC50 ± SD Or CC50 Interval Estimation
# Protocol: The effect of compounds selected compounds on THP-1-derived macrophages was assessed by the colorimetric MTT assay (3-(4,5-dimethylthiazol-2-yl)-2,5-diphenyl tetrazolium bromide). Briefly, 1 × 10^5 THP-1 cells/mL were differentiated into macrophages by addition of 20 ng/mL of phorbol-myristate 13-acetate (PMA, Sigma, Saint Louis, MI, USA) for 18 h, followed by replacement with fresh medium for 24 h. Cells were incubated with 100 µL of compounds ranging from 100 to 1 µM after dilution in the RPMI complete medium containing a maximum amount of 1% DMSO. After incubation for 72 h, the medium was removed and 100 µL of 0.5 mg/mL MTT solution diluted in RPMI was added. Plates were incubated for an additional 4 h to allow viable cells to convert MTT into a purple formazan product. Solubilization of formazan crystals was achieved by the addition of 2-propanol and absorbance was read at 570 nm using a Synergy 2 Multi-Mode Reader (Biotek, Winooski, VT, USA). Cytotoxicity was evaluated by the determination of the CC50 value (drug concentration that reduced the percentage of viable cells in 50%) and calculated by non-linear regression analysis using GraphPad Prism version 8.1.1 for Windows (GraphPad Software, San Diego, CA, USA).
# [3] = system: T. cruzi intracellular amastigotes (Y strain); assay: T. cruzi intracellular amastigotes in Swiss mouse peritoneal macrophages (high content imaging); format: cell-based; settings: Trypanosoma cruzi, Peritoneal macrophage
# Protocol: The trypomastigotes were obtained from the supernatant of a previously infected cell line (LLC-MK2). Between 5 and 7 days after infection, protozoa were collected from the supernatants of the infected LLC-MK2 cells and were then incubated with fresh RPMI 1640 medium supplemented with 0.5% FBS, with or without the compounds, for 24 h at 37 °C under a 5% CO2 atmosphere. […] The experiment was performed in duplicate for each of the three different experiments. […] To investigate the effect of the compounds on intracellular amastigotes, peritoneal macrophages from Swiss mouse (CF1) plated in 96 wells plates (Costar®, Sigma, São Paulo, Brazil) were incubated for 2 h with T. cruzi trypomastigotes at a ratio of 10 parasites to 1 cell. The non-internalized parasites were removed by washing with the RPMI 1640 medium, and the host cells were incubated for 24 h at 37 °C to allow full internalization and differentiation of trypomastigotes to amastigotes. Fresh 10% FBS-RPMI 1640 medium with 1 µg/mL Hoescht 3348 and 1 µg/mL of WGA-FITC (control) or the same solution containing the inhibitors was added to the infected cells, which were then incubated for 96 h at 37 °C. Every 24 h samples were taken and analysed in high content equipment (InCell Analyser 2000, GE Healthcare, Chicago, IL, USA) with 20× air objective (NA 0.4) using respectively filters to excitation and emission to DAPI (405/455 nm), FITC (488/505 nm) and Cy3 (514/605 nm). Six images were collected for each well for reliable statistical analysis. […] The infection index (i.e., the percentage of infected host cells multiplied by the average number of intracellular amastigotes per infected host cell) was determined by counting a total of 500 host cells. Inhibitor activity was calculated using the SigmaPlot (version 10) program (Systat Software, Inc., San Jose, CA, USA). The results are expressed as the mean values from three independent experiments. The IC50 was calculated for promastigotes and intracellular amastigotes by fitting the values to a non-linear curve analysis. […]
# [4] = design: method as in PMID 18472998, PMID 22573856; settings: in humans ref 12,13; cited from earlier work
# [5] = epimastigotes, 24 h, read-out: IC50 24 h
# [6] = epimastigotes, 48 h, read-out: IC50 48 h
# [7] = epimastigotes, 72 h, read-out: IC50 72 h
smiles,measurement,setting,value
"CCCCCc1cn(CCCCCCCCCCCOP(=O)([O-])OCC[N+](C)(C)C)nn1 [Compound 25, 11-(4-pentyl-1H-1,2,3-triazol-1-yl)undecyl (2-(trimethylammonio)ethyl) phosphate inner salt]",IC50,[1]; [5],7.8 µM
same,IC50,[1]; [6],3.85 µM
same,IC50,[1]; [7],2.16 µM
"C[N+](C)(C)CCOP(=O)([O-])OCCCCCCCCCCCn1cc(CC2CCCCC2)nn1 [Compound 29, 11-(4-(cyclohexylmethyl)-1H-1,2,3-triazol-1-yl)undecyl (2-(trimethylammonio)ethyl) phosphate inner salt]",IC50,[1]; [5],> 10 µM
same,IC50,[1]; [6],> 10 µM
same,IC50,[1]; [7],> 10 µM
"CCCCCCCCc1noc(CCCCCCCCCCOP(=O)([O-])OCC[N+](C)(C)C)n1 [Compound 54, 10-(3-octyl-1,2,4-oxadiazol-5-yl)decyl (2-(trimethylammonio)ethyl) phosphate inner salt]",CC50,[2],10.8 µM
"CCCCCCCCCCCCCCCCOP(=O)([O-])OCC[N+](C)(C)C [Miltefosine, hexadecylphosphocholine, reference compound]",IC50,"[1]; 24 h, read-out: IC50 24 h",18.4 ± 1.2 µM
same,IC50,"[1]; 48 h, read-out: IC50 48 h",9.5 ± 0.9 µM
same,IC50,"[1]; 72 h, read-out: IC50 72 h",8.34 µM
same,IC50,"[3]; 24 h, read-out: IC50 24 h",12.4 ± 0.6 µM
same,IC50,"[3]; 48 h, read-out: IC50 48 h",4.59 ± 0.1 µM
same,IC50,"[3]; 72 h, read-out: IC50 72 h",4.3 ± 0.12 µM
same,half-life,[4],100 to 200 h
